Tested on: TC projections to the ACx
Test: Whole-cell recordings of TC EPSCs in acute thalamocortical slices, bath application of antipsychotics / Drd2 antagonist
Assay type: cell-based, mouse
Method: Acute primary thalamocortical (TC) slices (400-μm thick) containing the left auditory cortex (ACx) and the left ventral part of the medial geniculate nuclei (MGv) of the thalamus were prepared as previously described^5. […] Primary TC slices were obtained from the left hemisphere by using a slicing angle of 15°.
Whole-cell recordings were obtained from cell bodies of layer (L) 3/4 thalamorecipient neurons in the ACx and thalamic-relay neurons in the MGv. Mice were chosen in a pseudorandom order, without the experimenter's prior knowledge of genotype or treatments. […] Voltage-clamp recordings were made using a Multiclamp 700B (Molecular Devices, Sunnyvale Calif.), digitized (10 kHz), and recorded using the pCLAMP 10.0 software (Molecular Devices, Sunnyvale Calif.). EPSCs were recorded at holding membrane potentials of −70 mV. In all experiments, membrane potentials were corrected for a liquid junction potential of −10 mV. TC excitatory postsynaptic currents (EPSCs) were evoked by current pulses (duration, 100 μs) delivered to the thalamic radiation via tungsten bipolar electrodes. Paired-pulse ratio (PPR) of TC and corticocortical (CC) EPSCs and the NMDAR/AMPAR ratio were measured as described previously^39. To ensure consistent access resistance of the recording electrode during long-term experiments, the peak amplitude of a brief (10-ms) hyperpolarizing test pulse (−5 mV) was monitored, which was given 250 ms after a stimulus. Access resistance (Ra) in recorded neurons was typically 10 to 25 MO.
Acute primary thalamocortical (TC) slices (400 µm thick) containing the auditory cortex (ACx) and the ventral part of the medial geniculate nuclei (MGv) of the thalamus were prepared as previously described^6. […] Primary TC slices were obtained from the left hemisphere by using a slicing angle of 15°.
Whole-cell recordings were obtained from cell bodies of layer (L) 3/4 thalamorecipient neurons in the ACx and thalamic-relay neurons in the MGv. […] Voltage-clamp recordings were made using a Multiclamp 700B, digitized (10 kHz), and recorded using the pCLAMP 10.0 software. EPSCs were recorded at holding membrane potentials of −70 mV. In all experiments, membrane potentials were corrected for a liquid junction potential of −10 mV. TC EPSCs were evoked by current pulses (duration, 100 […]s) delivered to the thalamic radiation via tungsten bipolar electrodes. To ensure consistent access resistance of the recording electrode during long-term experiments, the peak amplitude of a brief (10-ms) hyperpolarizing test pulse (−5 mV) was monitored given 250 ms after a stimulus. Access resistance (Ra) in recorded neurons was typically 10 to 25 MΩ.
In brief, the thalamic radiation of WT mice was stimulated to evoke TC EPSCs with a rise slope of approximately 100 pA/ms. The effect of the antipsychotic agent haloperidol on TC EPSC 30 minutes after its bath application was compared to the preapplication baseline TC EPSC (AH).

OC1(c2ccc(Cl)cc2)CCN(Cc2c[nH]c3ccccc23)CC1 [L-741,626]
Effect on TC EPSCs (4-month-old miR-338+/− mice, L-741,626 20 nM): substantially increased

O=C(CCCN1CCC(O)(c2ccc(Cl)cc2)CC1)c1ccc(F)cc1 [haloperidol]
Effect on TC EPSCs, haloperidol alone (4-month-old miR-338+/− mice): increased TC EPSCs
Further effect on TC EPSCs after L-741,626 (4-month-old miR-338+/− mice, haloperidol applied on top of L-741,626 20 nM): not further elevated
Sensitivity of TC EPSCs to haloperidol (Df(16)1/+ mice 2 months or younger): not sensitive to haloperidol
Sensitivity of TC projections to haloperidol (Df(16)1/+ mice, age dependence, haloperidol 1 μM): became sensitive to haloperidol (1 µM) only at 3 months of age
Sensitivity of TC projections to haloperidol (Dgcr8+/− mice older than 3 months): sensitive to haloperidol at older than 3 months of age
Sensitivity of TC projections to haloperidol (WT mice, 1.5 to 7 months): not haloperidol-sensitive at any age
Sensitivity of TC projections to haloperidol, age dependence (miR-338+/− mice, 1.5 to 4 months): sensitive to haloperidol in an age-independent manner
Effect on deficit of TC EPSCs (smaller TC EPSCs vs WT) (older Df(16)1/+ mice, haloperidol 1 μM, 30 minutes after bath application): rescued that deficit
Sensitivity of TC projections to haloperidol (younger Dgcr8+/− mice): not sensitive to haloperidol
